Experiments:
[1] = molecular target: T1, Tyrosine-protein kinase BTK (Homo sapiens, UniProt Q06187); test: Inhibition of BTK (unknown origin) by ELISA
[2] = system: TMD8; test: Antiproliferative activity against human TMD8 cells assessed as reduction in cell viability incubated for 72 hrs by CCK-8 assay; type: functional, cell-based; settings: TMD8, 72 h
[3] = system: TMD8; test: Cell cycle arrest in BTK-dependent human TMD8 cells assessed as accumulation of cells in G1 phase at 1 uM incubated for 72 hrs by propidium iodide staining based flow cytometry; type: functional
[4] = system: Ramos; test: cells; settings: Homo sapiens, 72 h
Description: Antiproliferative activity against human Ramos cells assessed as reduction in cell viability incubated for 72 hrs by CCK-8 assay

[5] = molecular target: T1, Tyrosine-protein kinase BTK; test: Inhibition of BTK phosphorylation at Tyr223 residue in human TMD8 cells at 0.1 to 1000 nM by Western blot analysis; type: cell-based
[6] = species on record: Homo sapiens; test: Selectivity ratio of IC50 for inhibition of EGFR (unknown origin) to IC50 for inhibition of BTK (unknown origin)

T1 sequence (Q06187 whole entry): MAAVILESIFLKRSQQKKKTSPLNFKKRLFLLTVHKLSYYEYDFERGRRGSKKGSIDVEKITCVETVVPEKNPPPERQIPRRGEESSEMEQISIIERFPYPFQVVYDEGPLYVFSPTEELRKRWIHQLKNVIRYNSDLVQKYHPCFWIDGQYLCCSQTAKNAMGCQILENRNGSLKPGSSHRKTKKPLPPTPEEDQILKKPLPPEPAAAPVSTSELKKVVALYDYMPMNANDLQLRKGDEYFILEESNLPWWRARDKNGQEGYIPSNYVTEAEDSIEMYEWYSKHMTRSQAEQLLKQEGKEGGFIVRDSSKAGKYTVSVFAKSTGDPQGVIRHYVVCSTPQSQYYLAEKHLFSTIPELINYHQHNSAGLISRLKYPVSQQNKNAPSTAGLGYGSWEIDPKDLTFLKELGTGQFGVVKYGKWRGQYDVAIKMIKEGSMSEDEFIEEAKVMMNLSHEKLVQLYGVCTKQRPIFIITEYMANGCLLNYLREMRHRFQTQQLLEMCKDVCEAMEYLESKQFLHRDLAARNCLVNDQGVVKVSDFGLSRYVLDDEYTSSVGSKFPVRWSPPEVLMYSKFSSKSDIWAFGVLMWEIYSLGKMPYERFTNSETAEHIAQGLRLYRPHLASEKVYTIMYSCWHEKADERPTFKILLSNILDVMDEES

| Compound | IC50 [1] [nM] | also measured |
| --- | --- | --- |
| C=CC(=O)Nc1cccc(-n2c(=O)n(CC)c(=O)c3cnc(Nc4ccc(N5CCC(N(C)C)CC5)cc4OC)nc32)c1 | 396 | – |
| C=CC(=O)Nc1cccc(-n2c(=O)n(CCc3ccccc3)c(=O)c3cnc(Nc4ccc(N5CCC(N(C)C)CC5)cc4OC)nc32)c1 | 23 | – |
| C=CC(=O)Nc1cccc(-n2c(=O)n(C(C)C)c(=O)c3cnc(Nc4ccc(N5CCC(N6CCN(C)CC6)CC5)cc4OC)nc32)c1 | 145 | – |
| C=CC(=O)Nc1cccc(-n2c(=O)n(CCC)c(=O)c3cnc(Nc4ccc(N5CCC(N(C)C)CC5)cc4OC)nc32)c1 | 30 | – |
| C=CC(=O)Nc1cccc(-n2c(=O)n(CCCc3ccccc3)c(=O)c3cnc(Nc4ccc(N5CCC(N(C)C)CC5)cc4OC)nc32)c1 | 76 | – |
| C=CC(=O)Nc1cccc(-n2c(=O)n(C(C)C)c(=O)c3cnc(Nc4ccc(N5CCC(N(C)C)CC5)cc4OC)nc32)c1 | 359 | – |
| C=CC(=O)Nc1cccc(-n2c(=O)n(C(C)C)c(=O)c3cnc(Nc4ccc(N(C)CCN(C)C)cc4OC)nc32)c1 | 982 | – |
| C=CC(=O)Nc1cccc(-n2c(=O)n(C(C)C)c(=O)c3cnc(Nc4ccc(N5CCN(C)CC5)cc4OC)nc32)c1 | 518 | – |

More lines, main results first:

| IC50 [1] [nM] | Compound | also measured |
| --- | --- | --- |
| 852 | C=CC(=O)Nc1cccc(-n2c(=O)n(C)c(=O)c3cnc(Nc4ccc(N5CCOCC5)cc4OC)nc32)c1 | – |
| 364 | C=CC(=O)Nc1cccc(-n2c(=O)n(C)c(=O)c3cnc(Nc4ccc(N5CCC(N(C)C)CC5)cc4OC)nc32)c1 | – |
| 349 | C=CC(=O)Nc1cccc(-n2c(=O)n(C(C)C)c(=O)c3cnc(Nc4ccc(OCCN(C)C)cc4OC)nc32)c1 | – |
| 6.2 | C=CC(=O)Nc1cccc(-n2c(=O)n(C)c(=O)c3cnc(Nc4ccccc4)nc32)c1 | – |
| 996 | C=CC(=O)Nc1cccc(-n2c(=O)n(C)c(=O)c3cnc(Nc4ccccc4OC)nc32)c1 | – |
| 806 | C=CC(=O)Nc1cccc(-n2c(=O)n(C)c(=O)c3cnc(Nc4ccc(N5CCSCC5)cc4OC)nc32)c1 | – |
| 1.2 | C=CC(=O)Nc1cccc(-n2c(=O)n(C(C)C)c(=O)c3cnc(Nc4ccc(N5CCN(C)CC5)c(OC)c4)nc32)c1 | IC50 [2]: 810 nM; Activity [3]: 75.4%; IC50 [4]: 9650 nM; inhibition [5]: Dose-dependent effect |
| 248 | C=CC(=O)Nc1cccc(-n2c(=O)n(Cc3ccccc3)c(=O)c3cnc(Nc4ccc(N5CCC(N(C)C)CC5)cc4OC)nc32)c1 | Ratio IC50 [6]: 206 |
| 0.8 | C=CC(=O)Nc1cccc(-n2c(=O)n(C(C)C)c(=O)c3cnc(Nc4ccc(N5CCN(C)CC5)c(C)c4)nc32)c1 | IC50 [2]: 720 nM; Activity [3]: 75.2%; IC50 [4]: 9210 nM; inhibition [5]: Dose-dependent effect |
| 718 | C=CC(=O)Nc1cccc(-n2c(=O)n(C)c(=O)c3cnc(Nc4ccc(N5CCN(C(C)=O)CC5)cc4OC)nc32)c1 | – |
